Assay results reported in publication PMC9387325, “New quinoline and isatin derivatives as apoptotic VEGFR-2 inhibitors: design, synthesis, anti-proliferative activity, docking, ADMET, toxicity, and MD simulation studies” (Journal of Enzyme Inhibition and Medicinal Chemistry, 2022).

Tests used:
A549 = experiment: In vitro anti-proliferative activity (MTT assay); type: cell-based, human; settings: for IC50: Homo sapiens, A549, mean of three replicates; for Selectivity index A549: IC50 on normal (Vero) cells / IC50 on A549
Protocol: (§1) Anti-proliferative activities were assessed using the MTT assay[31]^,[46] and were explained intensely in Supplementary data. […]
(§2) a- Mammalian cell lines culture
(§3) Lung carcinoma epithelial (A549), colon cancer (Caco-2)cell lines were cultured on DMEM media, […]
(§4) RBMI media. The cultured media were supplement ed with 200 mM L-glutamine, 10.0% fetal bovine serum (Lonza), and 1.0% penicillin/streptomycin. Cells were seeded into 25.0 cm tissue culture flasks and incubated at 37 ◦C in a 5.0% CO2 incubator for 24 h or till confluency.
(§5) The safety profiles of the tested compounds were checked on one non-cancerous cell line (Vero) to […]
(§6) of 100.0 µl of 6×10^4 cell/ml cells was seeded in to each well of a 96-well plate and then the plates were incubated at 37 °C in a humidified 5.0% CO2 incubator for 24 h. At the end of incubation period, the exhausted medium was replaced with 100.0 µl of different concentrations of the designated treatment (prepared in RPMI medium starting from 1.0 mM). The inoculated plates were incubated at the same growth conditions for another 24 h. At the end of incubation, cellular viability was assessed using MTS assay kit (Promega) according to the manual instruction. c- In-vitro anticancer activity
(§7) Anticancer activities of the tested compounds against lung carcinoma epithelial (A549), colon cancer […]
(§8) quantified using MTS assay kit (Promega) as described by the Manufacturer. d- Selectivity index (SI)
(§9) The selectivity index values of the tested compounds on cancer cells were calculated as described by Koch et al., with slight modifications; SI=IC50nc/IC50cc, where IC50nc: the IC50 value of the tested compound on normal cells and IC 50cc: IC50 of the tested compound on cancer cell line . […]

HepG2 = experiment: In vitro anti-proliferative activity (MTT assay); type: cell-based, human; settings: for IC50: Homo sapiens, HepG2, HepG-2, mean of three replicates; for Selectivity index HepG2: IC50 on normal (Vero) cells / IC50 on HepG2
Protocol: as §1, §2, §3, §4, §5, §6, §7, §8, §9

MDA-MB-231 = experiment: In vitro anti-proliferative activity (MTT assay); type: cell-based, human; settings: for IC50: Homo sapiens, MDA-MB-231, MDA-MB231, mean of three replicates; for Selectivity index MDA-MB231: IC50 on normal (Vero) cells / IC50 on MDA-MB231
Protocol: as §1, §2, §3, §4, §5, §6, §7, §8, §9

[1] = In vitro anti-proliferative activity (MTT assay); type: cell-based, human; settings: African green monkey (Vero) / human (Caco-2); IC50 on normal (Vero) cells / IC50 on Caco-2; read-out: Selectivity index Caco-2
Protocol: (§10) To assess the antiproliferative effects of the targeted candidates, an MTT assay[29–31] was performed against four cancer cell lines: lung carcinoma epithelial (A549), colon cancer (Caco-2), hepatocellular cancer (HepG2), and breast cancer (MDA-MB-231).
as §1, §2
as §4, with “Lung carcinoma epithelial (A549), colon cancer (Caco-2)cell lines were cultured on DMEM media, meanwhile hepatocellular cancer (HepG2), and breast cancer (MDA-MB-231) cell lines were cultured on RBMI” for “RBMI”
as §5, §6
(§11) Anticancer activities of the tested compounds against lung carcinoma epithelial (A549), colon cancer (Caco-2), hepatocellular cancer (HepG2), and breast cancer (MDA-MB-231) cell lines were quantified using MTS assay kit (Promega) as described by the Manufacturer. d- Selectivity index (SI)
as §9

Caco-2 = experiment: In vitro anti-proliferative activity (MTT assay); type: cell-based, human; settings: for IC50: Homo sapiens, Caco-2, mean of three replicates
Protocol: as §10, §1, §2
as §4, with “Lung carcinoma epithelial (A549), colon cancer (Caco-2)cell lines were cultured on DMEM media, meanwhile hepatocellular cancer (HepG2), and breast cancer (MDA-MB-231) cell lines were cultured on RBMI” for “RBMI”
as §5, §6, §11, §9

VEGFR-2 = molecular target: T1, VEGFR-2 (Homo sapiens, UniProt P35968); experiment: In vitro VEGFR-2 kinase assay (VEGFR-2 ELISA kit); type: biochemical; settings: for HillSlope (best-fit value), VEGFR-2 inhibition / LogIC50 (best-fit value), VEGFR-2 inhibition: dose-response fit, supplement; for IC50: mean of three replicates, read-out: VEGFR-2 inhibitory activity IC50
T1 construct: purchased
Protocol: As the main target in this work is the design and synthesis of promising VEGFR-2 inhibitors, we subjected the synthesised compounds to in vitro VEGFR-2 inhibitory assay to assess the ability of these compounds to obstacle the kinase activity of VEGFR-2.
Was tested using a VEGFR-2 ELISA kit and was explained intensely in Supplementary data[47].

[2] = Cytotoxicity against normal cells (safety assay); type: cell-based; settings: African green monkey, Vero cells (non-cancerous cell line)
Protocol: The cytotoxic activities of the synthesised against normal cells were evaluated against the Vero cell line utilising an MTT assay.
The safety profiles were examined on Vero cells (non-cancerous cell line) and was explained intensely in Supplementary data[48]. […]
a- Mammalian cell lines culture […]
as §4, §5
as §6, with “c- In-vitro anticancer activity” left out

Caco-2 cells [3] = experiment: Wound healing assay (migration assay); type: cell-based, human
Protocol: In this test, Caco-2 cells were allowed to grow then, a wound was formed on the cell layer. Next, the cells were incubated with the sub IC50 dose of compound 7. The results of wound healing were compared to the untreated cell line. Figure 4 illustrates the degree of wound healing caused by compound 7 compared to the control cells.
Was performed as the described protocol[50] and was explained intensely in Supplementary data. […]
as §2
Lung carcinoma epithelial (A549), colon cancer (Caco-2)cell lines were cultured on DMEM media, meanwhile hepatocellular cancer (HepG2), and breast cancer (MDA-MB-231) cell lines were cultured on RBMI media. […]
of 100.0 µl of 6×10^4 cell/ml cells was seeded in to each well of a 96-well plate and then the plates were incubated at 37 °C in a humidified 5.0% CO2 incubator for 24 h. […] At the end of incubation, cellular viability was assessed using MTS assay kit (Promega) according to the manual instruction. c- In-vitro anticancer activity
Anticancer activities of the tested compounds against lung carcinoma epithelial (A549), colon cancer (Caco-2), hepatocellular cancer (HepG2), and breast cancer (MDA-MB-231) cell lines were quantified using MTS assay kit (Promega) as described by the Manufacturer. d- Selectivity index (SI) […]

Bcl-xl = experiment: RT-qPCR gene expression in Caco-2 cells; type: cell-based, human; settings: Caco-2, 90 µM, 24 h
Protocol: (§12) RT-qPCR technique was applied to assess the expression levels of Bcl2, Bcl-xl, Survivin, and TGF in Caco-2 cells after treatment with compound 7 for 24 h. […] On the other hand, such a compound produced an upregulation effect of the TGF gene.
(§13) Bcl2, Bcl-xl, TGF and Survivin genes levels were evaluated as reported[51] and was explained intensely in Supplementary data. […]
(§14) f- Gene expression pattern alternation of cancer cell after treatment with compound 7.
(§15) The molecular anticancer mode of action of 7 was investigated by screening their ability to affect the gene expression levels of Bcl2, Bcl-xl, TGF and Survivin genes using specific forward and reverse primers and RTq-PCR technique (Table 1) in CaCo-2 cells (chosen as the most sensitive cancer cell line). After cellular treatment, CaCo-2 cell line was cultured into 12 well plates (6×10^3 cell/ml) for 24 h. with the sub -IC50 concentration of 7. After treatment, total RNA extraction was performed using RNA extraction kit (Qiagen, Germany). Then, 1 ug of the obtained RNA was used to synthesiz cDNA using cDNA synthesis kit (Promega Corp., Madison, WI) as recommended by the manufacturer . Simultaneously, GAPDH forward and reverse primers (Table 1) were used to amplify the house keeping gene as internal control for standardization of PCR products. The RTq -PCR was done using SYBR Green dye (QuantiTect SYBR Green PCR Kits) and Light Cycler fluorimeter (Bio-RAD S1000 Tm thermal cycler). The PCR cycling program was as follows: 95 °C for 2 min, followed by 40 cycles of 95 °C for 30s, 55 °C for 30 s, and 60 °C for 45s, and finally 60 °C for 5 min. […]

Bcl2 = experiment: RT-qPCR gene expression in Caco-2 cells; type: cell-based, human; settings: Caco-2, 90 µM, 24 h
Protocol: as §12, §13, §14, §15

Survivin = experiment: RT-qPCR gene expression in Caco-2 cells; type: cell-based, human; settings: Caco-2, 90 µM, 24 h
Protocol: as §12, §13, §14, §15

TGF = experiment: RT-qPCR gene expression in Caco-2 cells; type: cell-based, human; settings: Caco-2, 90 µM, 24 h
Protocol: as §12, §13, §14, §15

Caco-2 cells [4] = experiment: Flow cytometric cell cycle analysis; type: cell-based, human; settings: Caco-2, 90 µM, 24 h
Excerpt: Employing the flowcytometry technique, the cell cycle pattern of the untrated Caco-2 cancer cells (Figure 6(A)) was compared with that of the treated cells with compound 7.

T1 sequence (P35968 20-1356): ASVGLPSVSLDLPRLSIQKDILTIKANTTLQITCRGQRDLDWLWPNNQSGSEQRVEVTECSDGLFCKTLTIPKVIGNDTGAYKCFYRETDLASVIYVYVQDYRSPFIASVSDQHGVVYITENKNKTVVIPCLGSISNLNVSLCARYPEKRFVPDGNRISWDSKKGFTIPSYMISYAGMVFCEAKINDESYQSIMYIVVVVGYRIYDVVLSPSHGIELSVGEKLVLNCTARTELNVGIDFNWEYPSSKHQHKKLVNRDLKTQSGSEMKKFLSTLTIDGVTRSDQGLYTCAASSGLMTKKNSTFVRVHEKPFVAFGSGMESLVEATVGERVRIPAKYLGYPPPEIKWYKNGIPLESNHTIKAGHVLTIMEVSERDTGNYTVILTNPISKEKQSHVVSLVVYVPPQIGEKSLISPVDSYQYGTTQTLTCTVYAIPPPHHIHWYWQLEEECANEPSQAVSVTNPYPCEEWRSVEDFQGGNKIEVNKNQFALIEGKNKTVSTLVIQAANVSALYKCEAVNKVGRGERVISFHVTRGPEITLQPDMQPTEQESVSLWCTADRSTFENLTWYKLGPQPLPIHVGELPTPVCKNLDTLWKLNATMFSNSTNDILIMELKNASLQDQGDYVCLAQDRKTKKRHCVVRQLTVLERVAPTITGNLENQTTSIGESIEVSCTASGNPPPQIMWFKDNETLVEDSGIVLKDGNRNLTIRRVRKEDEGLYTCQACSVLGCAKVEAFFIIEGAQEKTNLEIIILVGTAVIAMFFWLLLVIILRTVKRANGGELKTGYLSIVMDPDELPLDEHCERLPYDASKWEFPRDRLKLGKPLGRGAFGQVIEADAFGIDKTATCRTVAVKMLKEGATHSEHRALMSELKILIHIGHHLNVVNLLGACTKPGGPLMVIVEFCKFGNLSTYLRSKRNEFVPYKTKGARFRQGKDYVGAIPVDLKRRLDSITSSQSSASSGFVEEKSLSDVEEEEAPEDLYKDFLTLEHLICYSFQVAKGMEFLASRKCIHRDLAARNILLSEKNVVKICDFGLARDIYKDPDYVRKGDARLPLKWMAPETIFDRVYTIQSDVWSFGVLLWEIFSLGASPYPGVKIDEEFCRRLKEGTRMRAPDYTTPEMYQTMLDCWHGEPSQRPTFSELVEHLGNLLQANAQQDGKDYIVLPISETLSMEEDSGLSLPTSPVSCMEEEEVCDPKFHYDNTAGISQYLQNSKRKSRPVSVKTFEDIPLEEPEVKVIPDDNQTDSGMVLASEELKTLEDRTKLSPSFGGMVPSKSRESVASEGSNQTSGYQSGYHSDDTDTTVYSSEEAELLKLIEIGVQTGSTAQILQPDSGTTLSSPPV

Row | SMILES | IC50 (A549) | Selectivity index A549 (A549) | IC50 (HepG2) | Selectivity index HepG2 (HepG2) | IC50 (MDA-MB-231) | Selectivity index MDA-MB231 (MDA-MB-231) | selectivity ratio [1] | IC50 (Caco-2) | HillSlope (best-fit value), VEGFR-2 inhibition (VEGFR-2) | LogIC50 (best-fit value), VEGFR-2 inhibition (VEGFR-2) | IC50 at 24 h [2] | IC50 (VEGFR-2) | further results
1 | COc1ccc2[nH]c(=O)c(/C=C3\SC(=O)N(CC(=O)Nc4ccccc4)C3=O)cc2c1 [Compound 7, (Z)-2–(5-((6-Methoxy-2-oxo-1,2-dihydroquinolin-3-yl)methylene)-2,4-dioxothiazolidin-3-yl)-N-phenylacetamide] | 159 ± 14 µM | 2.77 | 150 ± 7.07 µM | 2.93 | 122 ± 7.01 µM | 3.59 | 4.71 | 93.5 ± 0.71 µM | -0.4960 | 2.138 Log (nM) | 440 ± 14.1 µM | – | diameter of the wound, treated cells (Figure 4A) (Caco-2 cells [3]; Caco-2, 90 µM, time not stated): 0.3058 mm; effect on wound healing (Caco-2 cells [3]; Caco-2, sub IC50 dose (90 µM)): prevent wound healing; Relative expression of Bcl-xl gene (Bcl-xl): down-regulating; Relative expression of Bcl2 gene (Bcl2): down-regulating; Relative expression of Survivin gene (Survivin): down-regulating; Relative expression of TGF gene (TGF): upregulation; cell cycle arrest (Caco-2 cells [4]): cellular arrest in sub G0 (Apoptotic phase); cell population in S phase (Caco-2 cells [4]; untreated 24.7%): 13.1%; cell population in G0/G1 phase (Caco-2 cells [4]; untreated 51.7%): 46.4%
2 | COc1ccc(NC(=O)CN2C(=O)S/C(=C\c3cc4cc(OC)ccc4[nH]c3=O)C2=O)cc1 [Compound 8, (Z)-2–(5-((6-Methoxy-2-oxo-1,2-dihydroquinolin-3-yl)methylene)-2,4-dioxothiazolidin-3-yl)-N-(4-methoxyphenyl)acetamide] | 196 ± 70 µM | 0.77 | 134 ± 1.41 µM | 1.12 | 130 ± 5.6 µM | 1.15 | 0.79 | 190 ± 9.11 µM | -0.3463 | 2.272 Log (nM) | 150 ± 14.1 µM | 0.187 µM | –
3 | COc1ccc2[nH]c(=O)c(/C=C3\SC(=O)N(CC(=O)Nc4ccccc4C)C3=O)cc2c1 [Compound 9, (Z)-2–(5-((6-Methoxy-2-oxo-1,2-dihydroquinolin-3-yl)methylene)-2,4-dioxothiazolidin-3-yl)-N-(o-tolyl)acetamide] | 51 ± 4.2 µM | 3.84 | 145 ± 3.5 µM | 1.35 | 188 ± 7.01 µM | 1.04 | 1.17 | 167 ± 4.2 µM | -0.5262 | 1.994 Log (nM) | 196 ± 2.8 µM | 0.0985 µM | times as active as sorafenib (VEGFR-2; VEGFR-2 inhibition): 0.54 times
4 | COc1ccc(NC(=O)CN2C(=O)S/C(=C3\C(=O)Nc4ccccc43)C2=O)cc1 [Compound 14] | 54 ± 1.4 µM | – | 149 ± 7.01 µM | – | 9 ± 0.51 µM | – | – | 5.7 ± 0.07 µM | – | – | 30 ± 1.35 µM | 0.0859 µM | times as active as doxorubicin (Caco-2; Caco-2 cells): 1.44 times
5 | COc1cccc2c1C(=O)c1c(O)c3c(c(O)c1C2=O)C[C@@](O)(C(=O)CO)C[C@@H]3O[C@H]1C[C@H](N)[C@H](O)[C@H](C)O1 [Doxorubicin, reference compound] | 7 ± 0.22 µM | 3.57 | 2.8 ± 0.07 µM | 8.93 | 9 ± 0.77 µM | 2.78 | 3.05 | 8.2 ± 0.21 µM | – | – | 25 ± 1.41 µM | – | –
